Experimental data as given in US20220409620A1, “REDUCING IMMUNOGENICITY TO PEGLOTICASE” (Horizon Pharma Rheumatology LLC, priority 2016, published 2022).

System: adult patients with uncontrolled gout
Test: Serum uric acid (sUA) levels and sUA responder rate, open-label study of pegloticase with MTX (MIRROR OL)
Type: in vivo, human
Conditions: Month 6 sUA Responders
Experimental: The primary objective is to estimate the response rate during Month 6 (Weeks 20, 22, and 24), as measured by the sustained normalization of serum uric acid (SUA) to <6 mg/dL for at least 80% of the time during Month 6 in subjects receiving KXX with MTX.
The primary efficacy outcome endpoint is the sustained normalization of SUA to <6 mg/dL for at least 80% of the time during month 6 (weeks 20, 22, and 24) in subjects receiving KXX with MTX. […] Participants who achieve this endpoint were classified as “responders.” Serum uric acid (SUA) responders may also be defined as participants achieving and maintaining SUA <6 mg/dL for at least 80% of the time during Month 6 (Weeks 20, 22, and 24).
Blood samples may be collected prior to each pegloticase infusion for measurement of SUA levels using the Beckman Coulter AU System Uric Acid procedure. Participants were declared “non-responders” if there were SUA measures >6 mg/dL at 2 consecutive study visits beginning with the week 2 visit. […] This assumption and subsequent discontinuation of pegloticase was consistent with the protocol of large phase III randomized controlled trials and the product label. A formal stopping rule was 2 occasions of SUA levels of greater than 6 mg/dL.
Clinical Chemistry—Blood samples were collected prior to each pegloticase infusion for measurement of SUA levels (primary efficacy parameter) using the Beckman Coulter AU System Uric Acid procedure. In this procedure uric acid is converted to hydrogen peroxide. Hydrogen peroxide reacts with reagent to produce a chromophore which is read bichromatically at 660/800 nm. The amount of dye formed is proportional to the uric acid concentration in the sample.
Serum samples for measurement of SUA levels were collected at the Screening Visit, the Week −4 Visit (prior to the first dose of MTX), and the Week −2 Visit during the MTX Run-in Period; within 48 hours prior to each pegloticase infusion and after the end of each pegloticase infusion prior to discharge from the site during the Pegloticase+IMM Period; at the non-infusion Week 52/End of Study/Early Termination Visits and at the Post Treatment 3 and 6 Month Follow-up Visits. Additional serum samples for SUA levels were collected at optional non-infusion (Frequent Sampling) Visits at Weeks 1 and 7. […] Subjects with SUA level >6 mg/dL at 2 consecutive visits beginning at Week 2 visit discontinued treatment, completed the End of Pegloticase Infusion Visit procedures within 2 weeks and continued the subject visits according to the protocol (without treatment).
Efficacy analyses were performed using the modified intention-to-treat (mITT) population, defined as all enrolled subjects who received ≥1 dose of pegloticase. The proportion of Month 6 responders was summarized, along with a 95% confidence interval for the proportion. The proportion of Month 3 and overall (Months 3 and 6 combined) responders was analyzed similarly.
A subject was declared a non-responder if the subject had SUA level >6 mg/dL at 2 consecutive study visits beginning with the Week 2 Visit. In addition, a subject who withdraws from study treatment for any reason after the first dose of pegloticase in the KXX+MTX Period and prior to Month 6 (for the primary endpoint) or Month 3 (for the secondary endpoint) was considered a non-responder if SUA values were not collected at the planned time points.
Patients were administered oral MTX (15 mg/week) and folate (1 mg/day) 4 weeks prior to the first pegloticase infusion (Day 1) and throughout the pegloticase treatment period. Blood was drawn prior to each infusion to measure sUA level, monitor clinical parameters, and examine for ADA development. All patients followed typical IR prophylaxis protocols (fexofenadine one day before and the morning of each infusion and acetaminophen and IV corticosteroid the morning of each infusion).

## pegloticase
Week 14-Post-Infusion, n=10
  Serum Uric Acid, Observed, Median: 0.30 mg/dL
  sUA <6 mg/dL, n (%): 10 (100%)
Week 14-Pre-Infusion, n=11
  Serum Uric Acid, Change from Baseline, Mean (SD): −8.97 (2.810) mg/dL
  Serum Uric Acid, Change from Baseline, Median: -8.80 mg/dL
  Serum Uric Acid, Observed, Mean (SD): 0.30 (0.000) mg/dL
  Serum Uric Acid, Observed, Median: 0.30 mg/dL
  sUA <6 mg/dL, n (%): 11 (100%)
Week 16-Post-Infusion, n=11
  Serum Uric Acid, Change from Baseline, Mean (SD): −8.97 (2.810) mg/dL
  Serum Uric Acid, Change from Baseline, Median: -8.80 mg/dL
  Serum Uric Acid, Observed, Mean (SD): 0.30 (0.000) mg/dL
  Serum Uric Acid, Observed, Median: 0.30 mg/dL
  sUA <6 mg/dL, n (%): 11 (100%)
Week 16-Pre-Infusion, n=11
  Serum Uric Acid, Change from Baseline, Mean (SD): −8.97 (2.810) mg/dL
  Serum Uric Acid, Change from Baseline, Median: -8.80 mg/dL
  Serum Uric Acid, Observed, Mean (SD): 0.30 (0.000) mg/dL
  Serum Uric Acid, Observed, Median: 0.30 mg/dL
  sUA <6 mg/dL, n (%): 11 (100%)
Week 18-Post-Infusion, n=11
  Serum Uric Acid, Change from Baseline, Mean (SD): −8.97 (2.810) mg/dL
  Serum Uric Acid, Change from Baseline, Median: -8.80 mg/dL
  Serum Uric Acid, Observed, Mean (SD): 0.30 (0.000) mg/dL
  Serum Uric Acid, Observed, Median: 0.30 mg/dL
  sUA <6 mg/dL, n (%): 11 (100%)
Week 18-Pre-Infusion, n=11
  Serum Uric Acid, Change from Baseline, Mean (SD): −8.97 (2.810) mg/dL
  Serum Uric Acid, Change from Baseline, Median: -8.80 mg/dL
  Serum Uric Acid, Observed, Mean (SD): 0.30 (0.000) mg/dL
  Serum Uric Acid, Observed, Median: 0.30 mg/dL
  sUA <6 mg/dL, n (%): 11 (100%)
Week 20-Post-Infusion, n=11
  Serum Uric Acid, Change from Baseline, Mean (SD): −8.97 (2.810) mg/dL
  Serum Uric Acid, Change from Baseline, Median: -8.80 mg/dL
  Serum Uric Acid, Observed, Mean (SD): 0.30 (0.000) mg/dL
  Serum Uric Acid, Observed, Median: 0.30 mg/dL
  sUA <6 mg/dL, n (%): 11 (100%)
Week 20-Pre-Infusion, n=11
  Serum Uric Acid, Change from Baseline, Mean (SD): −8.97 (2.810) mg/dL
  Serum Uric Acid, Change from Baseline, Median: -8.80 mg/dL
  Serum Uric Acid, Observed, Mean (SD): 0.30 (0.000) mg/dL
  Serum Uric Acid, Observed, Median: 0.30 mg/dL
  sUA <6 mg/dL, n (%): 11 (100%)
Week 22-Post-Infusion, n=11
  Serum Uric Acid, Change from Baseline, Median: -8.80 mg/dL
  Serum Uric Acid, Observed, Median: 0.30 mg/dL
  sUA <6 mg/dL, n (%): 11 (100%)
Week 22-Pre-Infusion, n=11
  Serum Uric Acid, Change from Baseline, Mean (SD): −8.97 (2.810) mg/dL
  Serum Uric Acid, Change from Baseline, Median: -8.80 mg/dL
  Serum Uric Acid, Observed, Mean (SD): 0.30 (0.000) mg/dL
  Serum Uric Acid, Observed, Median: 0.30 mg/dL
  sUA <6 mg/dL, n (%): 11(100%)
Week 24-Post-Infusion, n=5
  Serum Uric Acid, Change from Baseline, Mean (SD): −9.18 (4.135) mg/dL
  Serum Uric Acid, Change from Baseline, Median: -9.30 mg/dL
  Serum Uric Acid, Observed, Mean (SD): 0.30 (0.000) mg/dL
  Serum Uric Acid, Observed, Median: 0.30 mg/dL
  sUA <6 mg/dL, n (%): 5 (100%)
Week 24-Pre-Infusion, n=11
  Serum Uric Acid, Change from Baseline, Mean (SD): −8.97 (2.810) mg/dL
  Serum Uric Acid, Change from Baseline, Median: -8.80 mg/dL
  Serum Uric Acid, Observed, Mean (SD): 0.30 (0.000) mg/dL
  Serum Uric Acid, Observed, Median: 0.30 mg/dL
  sUA <6 mg/dL, n (%): 11 (100%)
Week 26-Pre-Infusion, n=8
  Serum Uric Acid, Change from Baseline, Mean (SD): −9.11 (3.293) mg/dL
  Serum Uric Acid, Change from Baseline, Median: -8.95 mg/dL
  Serum Uric Acid, Observed, Mean (SD): 0.30 (0.000) mg/dL
  Serum Uric Acid, Observed, Median: 0.30 mg/dL
  sUA <6 mg/dL, n (%): 8 (100%)
Week 28-Pre-Infusion, n=8
  Serum Uric Acid, Change from Baseline, Mean (SD): −9.11 (3.293) mg/dL
  Serum Uric Acid, Change from Baseline, Median: -8.95 mg/dL
